Peptide text beside a SMILES is read from it. * marks the point of attachment. Cbz = O=C(OCc1ccccc1)*
Tests used:
急性早幼粒白血病细胞NB4 [1] = test: MTT cell survival assay, NB4 cells; type: cell-based; settings: 48 h; for Enhancement of the cancer cell inhibition of arsenic trioxide by a proteasome inhibitor: proteasome inhibitor fixed 40 nM combined with arsenic trioxide 0.1-0.5 μM, Fig. 6; for 细胞存活率 (cell survival rate): arsenic trioxide 0.1-0.5 μM, oprozomib 5-40 nM, alone or combined (fixed 40 nM oprozomib or fixed 0.4 μM arsenic trioxide), Fig. 1, 2
急性早幼粒白血病细胞NB4 [2] = test: Mouse APL model: CD33 immunohistochemistry of liver and spleen sections; type: in vivo, NOD/SCID小鼠; settings: oprozomib 0.43 mg/kg iv, arsenic trioxide 1.53 mg/kg iv; compared with control group; Fig. 14
急性早幼粒白血病细胞NB4 [3] = test: Mouse APL model: HE staining of liver and spleen sections; type: in vivo, NOD/SCID小鼠; settings: oprozomib 0.43 mg/kg iv, arsenic trioxide 1.53 mg/kg iv; compared with control group; Fig. 13
人结直肠腺癌细胞CaCo-2 = test: MTT cell survival assay, CaCo-2 cells; type: cell-based, 人; settings: CaCo-2, MTT, 48 h; arsenic trioxide 0.4 μM, oprozomib 40 nM, alone or combined; Fig. 5
慢性髓性白血病细胞K562 = test: MTT cell survival assay, K562 cells; type: cell-based; settings: 48 h, arsenic trioxide 0.4 μM, oprozomib 40 nM, alone or combined, Fig. 5
人肝癌细胞SMMC-7721 = test: MTT cell survival assay, SMMC-7721 cells; type: cell-based, 人; settings: SMMC-7721, MTT, 48 h; arsenic trioxide 0.4 μM, oprozomib 40 nM, alone or combined; Fig. 5
急性早幼粒白血病细胞NB4 [4] = test: Mouse APL model: flow cytometry of bone marrow cells for human CD33+; type: in vivo, NOD/SCID小鼠; settings: moribund mice, bone marrow cultured 24 h; oprozomib 0.43 mg/kg iv, arsenic trioxide 1.53 mg/kg iv; compared with positive control; Fig. 8-12
急性早幼粒白血病细胞HL-60 = test: MTT cell survival assay, HL-60 cells; type: cell-based; settings: HL-60, MTT, 48 h; arsenic trioxide 0.4-2 μM, oprozomib 40-200 nM, alone or combined (fixed 160 nM oprozomib or fixed 1.2 μM arsenic trioxide); Fig. 3, 4

| Structure (SMILES) | Enhancement of the cancer cell inhibition of arsenic trioxide by a proteasome inhibitor (急性早幼粒白血病细胞NB4 [1]) | Human CD33 expression in liver and spleen sections (immunohistochemistry) (急性早幼粒白血病细胞NB4 [2]) | 细胞存活率 (cell survival rate) (急性早幼粒白血病细胞NB4 [1]) | Infiltrating tumour cells in liver and spleen (HE staining) (急性早幼粒白血病细胞NB4 [3]) | 细胞存活率 (cell survival rate) (人结直肠腺癌细胞CaCo-2) | 细胞存活率 (cell survival rate) (慢性髓性白血病细胞K562) | 细胞存活率 (cell survival rate) (人肝癌细胞SMMC-7721) | Human CD33+ positive cells in mouse bone marrow (急性早幼粒白血病细胞NB4 [4]) | 细胞存活率 (cell survival rate) (急性早幼粒白血病细胞HL-60) |
| --- | --- | --- | --- | --- | --- | --- | --- | --- | --- |
| CC(C)C[C@@H](C=O)NC(=O)[C@H](CC(C)C)NC(=O)[C@H](CC(C)C)NC(=O)OCc1ccccc1 [MG132] (Cbz-Leu-Leu-Leu-aldehyde) | 并不能增加三氧化二砷的癌细胞抑制效果 |  |  |  |  |  |  |  |  |
| O=[As][As+](=O)[O-] (stereo not drawn) [三氧化二砷] |  | 略有减少但不明显 | 无明显影响 | 略有减少但不明显 | 无明显影响 | 无明显影响 | 无明显影响 | 有所减少 | 无明显影响 |
| COC[C@H](NC(=O)c1cnc(C)s1)C(=O)N[C@@H](COC)C(=O)N[C@@H](Cc1ccccc1)C(=O)[C@@]1(C)CO1 [奥普佐米] | 能极大地提升三氧化二砷的癌细胞抑制效果 | 略有减少但不明显 | 无明显影响 | 略有减少但不明显 | 无明显影响 | 无明显影响 | 无明显影响 | 有所减少 | 无明显影响 |

From patent CN113018415A, “一种新的药物组合及其应用” (priority 2021, dated 2021)
